# Legend:
# [1] = Antiproliferative activity against VEGF-stimulated HUVEC cells assessed as reduction in cell viability at 2 nM preincubated for 1 hr followed by addition of VEGF measured after 72 hrs by MTT assay; assay type: functional; details: Homo sapiens
# [2] = Antiproliferative activity against VEGF-stimulated HUVEC cells assessed as reduction in cell viability at 0.5 nM preincubated for 1 hr followed by addition of VEGF measured after 72 hrs by MTT assay; assay type: functional; details: Homo sapiens
SMILES,inhibition at 0.002 µM [1] [%],inhibition at 0.0005 µM [2] [%]
CC(C)CCCC(C)NC(=O)c1ccccc1Nc1ccc2c(/C=C/c3ccccn3)n[nH]c2c1 (centres undefined),32,20
CCCCN(CCCC)CCCNC(=O)c1ccccc1Nc1ccc2c(/C=C/c3ccccn3)n[nH]c2c1,10,32
CSc1nc(NC(=O)c2ccccc2Nc2ccc3c(/C=C/c4ccccn4)n[nH]c3c2)nn1C,2,16
O=C(Nc1nncs1)c1ccccc1Nc1ccc2c(/C=C/c3ccccn3)n[nH]c2c1,28,44
O=C(NC1CCCC1)c1ccccc1Nc1ccc2c(/C=C/c3ccccn3)n[nH]c2c1,96,43
O=C(NNC(=O)c1ccccc1Nc1ccc2c(/C=C/c3ccccn3)n[nH]c2c1)c1ccco1,71,26
O=C(NCCCN(CCO)CCO)c1ccccc1Nc1ccc2c(/C=C/c3ccccn3)n[nH]c2c1,4,4
O=C(NOCc1ccccc1)c1ccccc1Nc1ccc2c(/C=C/c3ccccn3)n[nH]c2c1,101 to 111,70 to 74
CC(NC(=O)c1ccccc1Nc1ccc2c(/C=C/c3ccccn3)n[nH]c2c1)c1ccccc1 (centres undefined),94,30
O=C(NNCC(F)(F)F)c1ccccc1Nc1ccc2c(/C=C/c3ccccn3)n[nH]c2c1,42,16
CN(C)CCCCNC(=O)c1ccccc1Nc1ccc2c(/C=C/c3ccccn3)n[nH]c2c1,16,23
N#CCNC(=O)c1ccccc1Nc1ccc2c(/C=C/c3ccccn3)n[nH]c2c1,40,18
O=C(NCCC1=CCCCC1)c1ccccc1Nc1ccc2c(/C=C/c3ccccn3)n[nH]c2c1,86,24
O=C(NC1CCSC1=O)c1ccccc1Nc1ccc2c(/C=C/c3ccccn3)n[nH]c2c1 (centres undefined),40,25
CN(C)CC(C)(C)CNC(=O)c1ccccc1Nc1ccc2c(/C=C/c3ccccn3)n[nH]c2c1,5,38
O=C(Nc1cc[nH]n1)c1ccccc1Nc1ccc2c(/C=C/c3ccccn3)n[nH]c2c1,25,20
NS(=O)(=O)c1ccc(CNC(=O)c2ccccc2Nc2ccc3c(/C=C/c4ccccn4)n[nH]c3c2)cc1,13,1
CNNC(=O)c1ccccc1Nc1ccc2c(/C=C/c3ccccn3)n[nH]c2c1,31,13
CN(C)CCNC(=O)c1ccccc1Nc1ccc2c(/C=C/c3ccccn3)n[nH]c2c1,10,20
CC(CCc1ccccc1)NC(=O)c1ccccc1Nc1ccc2c(/C=C/c3ccccn3)n[nH]c2c1 (centres undefined),40,50
O=C(NCc1ccncc1)c1ccccc1Nc1ccc2c(/C=C/c3ccccn3)n[nH]c2c1,58,34
Cc1cc(C(=O)NNC(=O)c2ccccc2Nc2ccc3c(/C=C/c4ccccn4)n[nH]c3c2)[nH]n1,39,26
CN1CCN(CCCNC(=O)c2ccccc2Nc2ccc3c(/C=C/c4ccccn4)n[nH]c3c2)CC1,4,0

SMILES,inhibition at 0.002 µM [1] [%],inhibition at 0.0005 µM [2] [%]
CNC(=O)CNC(=O)c1ccccc1Nc1ccc2c(/C=C/c3ccccn3)n[nH]c2c1,26,-1
Cn1cncc1CCNC(=O)c1ccccc1Nc1ccc2c(/C=C/c3ccccn3)n[nH]c2c1,0,-6
CC(C)CCNC(=O)c1ccccc1Nc1ccc2c(/C=C/c3ccccn3)n[nH]c2c1,47 to 55,14 to 47
Cc1ccc(CNC(=O)c2ccccc2Nc2ccc3c(/C=C/c4ccccn4)n[nH]c3c2)cc1,92,20
N#CC1CCC(CNC(=O)c2ccccc2Nc2ccc3c(/C=C/c4ccccn4)n[nH]c3c2)CC1 (centres undefined),66,36
CCN1CCC[C@H]1CNC(=O)c1ccccc1Nc1ccc2c(/C=C/c3ccccn3)n[nH]c2c1,23,15
COCCNC(=O)c1ccccc1Nc1ccc2c(/C=C/c3ccccn3)n[nH]c2c1,60,21
O=C(NCS(=O)(=O)O)c1ccccc1Nc1ccc2c(/C=C/c3ccccn3)n[nH]c2c1,-3,2
O=C(NNC1=NCCN1)c1ccccc1Nc1ccc2c(/C=C/c3ccccn3)n[nH]c2c1,69,34
CCC(CO)NC(=O)c1ccccc1Nc1ccc2c(/C=C/c3ccccn3)n[nH]c2c1 (centres undefined),23,22
CC(C)CNC(=O)c1ccccc1Nc1ccc2c(/C=C/c3ccccn3)n[nH]c2c1,29 to 36,4 to 31
O=C(N[C@H]1CC[C@H](O)CC1)c1ccccc1Nc1ccc2c(/C=C/c3ccccn3)n[nH]c2c1,6,23
CCN(CC)CCNC(=O)c1ccccc1Nc1ccc2c(/C=C/c3ccccn3)n[nH]c2c1,15,39
CN(C)CCCNC(=O)c1ccccc1Nc1ccc2c(/C=C/c3ccccn3)n[nH]c2c1,1,6
CCCC(CO)NC(=O)c1ccccc1Nc1ccc2c(/C=C/c3ccccn3)n[nH]c2c1 (centres undefined),40,44
CC(CN(C)C)NC(=O)c1ccccc1Nc1ccc2c(/C=C/c3ccccn3)n[nH]c2c1 (centres undefined),17,23
O=C(NCCN1CCCCC1)c1ccccc1Nc1ccc2c(/C=C/c3ccccn3)n[nH]c2c1,19,5
O=C(O)CNC(=O)CCNC(=O)c1ccccc1Nc1ccc2c(/C=C/c3ccccn3)n[nH]c2c1,-9,49
CCC(C)CNC(=O)c1ccccc1Nc1ccc2c(/C=C/c3ccccn3)n[nH]c2c1 (centres undefined),84,24
O=C(NCCc1cccnc1)c1ccccc1Nc1ccc2c(/C=C/c3ccccn3)n[nH]c2c1,61,23
O=C(Nc1nccs1)c1ccccc1Nc1ccc2c(/C=C/c3ccccn3)n[nH]c2c1,94,33
CCN(CC)CCCCNC(=O)c1ccccc1Nc1ccc2c(/C=C/c3ccccn3)n[nH]c2c1,36,22
Cc1cc(NC(=O)c2ccccc2Nc2ccc3c(/C=C/c4ccccn4)n[nH]c3c2)no1,14,28

SMILES,inhibition at 0.002 µM [1] [%],inhibition at 0.0005 µM [2] [%]
O=C(NO)c1ccccc1Nc1ccc2c(/C=C/c3ccccn3)n[nH]c2c1,25,7
CC(=O)NNC(=O)c1ccccc1Nc1ccc2c(/C=C/c3ccccn3)n[nH]c2c1,10,4
CC(C)OCCCNC(=O)c1ccccc1Nc1ccc2c(/C=C/c3ccccn3)n[nH]c2c1,99,34
CC(C)C(CO)NC(=O)c1ccccc1Nc1ccc2c(/C=C/c3ccccn3)n[nH]c2c1 (centres undefined),-5,21
O=C(NCCOc1ccccc1)c1ccccc1Nc1ccc2c(/C=C/c3ccccn3)n[nH]c2c1,73,16
O=C1CSC(NC(=O)c2ccccc2Nc2ccc3c(/C=C/c4ccccn4)n[nH]c3c2)=N1,-9,9
CCC(O)CNC(=O)c1ccccc1Nc1ccc2c(/C=C/c3ccccn3)n[nH]c2c1 (centres undefined),23,13
CC1(C)CC(NC(=O)c2ccccc2Nc2ccc3c(/C=C/c4ccccn4)n[nH]c3c2)C(C)(C)N1O (centres undefined),8,15
O=C(NCCc1ccccc1)c1ccccc1Nc1ccc2c(/C=C/c3ccccn3)n[nH]c2c1,99,15
O=C(NCCN1CCCC1)c1ccccc1Nc1ccc2c(/C=C/c3ccccn3)n[nH]c2c1,31,40
CC1CC(NC(=O)c2ccccc2Nc2ccc3c(/C=C/c4ccccn4)n[nH]c3c2)CC(C)(C)C1 (centres undefined),31,25
CCCCCC(C)NC(=O)c1ccccc1Nc1ccc2c(/C=C/c3ccccn3)n[nH]c2c1 (centres undefined),14,-1
COCC(C)NC(=O)c1ccccc1Nc1ccc2c(/C=C/c3ccccn3)n[nH]c2c1 (centres undefined),32,18
CCCCC(=O)NNC(=O)c1ccccc1Nc1ccc2c(/C=C/c3ccccn3)n[nH]c2c1,94,40
Cc1cc(NC(=O)c2ccccc2Nc2ccc3c(/C=C/c4ccccn4)n[nH]c3c2)on1,31,26
O=C(NCCCCO)c1ccccc1Nc1ccc2c(/C=C/c3ccccn3)n[nH]c2c1,40,35
O=C(N[C@@H]1CC=CC[C@@H]1CO)c1ccccc1Nc1ccc2c(/C=C/c3ccccn3)n[nH]c2c1,37,58
CC(C)(N)CNC(=O)c1ccccc1Nc1ccc2c(/C=C/c3ccccn3)n[nH]c2c1,3,31
Cc1ccc(CNC(=O)c2ccccc2Nc2ccc3c(/C=C/c4ccccn4)n[nH]c3c2)o1,96,56
CCN1CCC[C@@H]1CNC(=O)c1ccccc1Nc1ccc2c(/C=C/c3ccccn3)n[nH]c2c1,37,8
CC(C)CCC(C)NC(=O)c1ccccc1Nc1ccc2c(/C=C/c3ccccn3)n[nH]c2c1 (centres undefined),44,6
